# Data: paper PMC2630805, “Anticancer Alkaloid Lamellarins Inhibit Protein Kinases” (Marine Drugs, 2008)
# Legend:
# [1] = biological target: PIM 1 (Homo sapiens, UniProt P11309); assay: PIM1 kinase assay (histone H1); type: biochemical
# [2] = test system: human neuroblastoma SH-SY5Y cells; assay: SH-SY5Y cell survival, MTS reduction assay; type: cell-based; settings: read-out: IC50 SH-SY5Y cell survival
# Procedure: We next tested the effects of each lamellarin, at an initial 10 μM concentration, on the survival of the neuroblastoma SH-SY5Y cell line after 48 h exposure (Table 2). Cell survival was estimated by the MTS reduction assay.
# SH-SY5Y human neuroblastoma cells were grown in DMEM supplemented with 2mM L-glutamine (Invitrogen, Cergy Pontoise, France), plus antibiotics (penicillin-streptomycin) and a 10% volume of fetal calf serum (FCS) (Invitrogen). Cell viability was determined by means of the MTS (3- (4,5-dimethylthiazol-2-yl)-5- (3-carboxymethoxyphenyl)-2- (4-sulfophenyl)-2H -tetrazolium) reduction method as previously described. Cell death was (also) assayed by LDH release. Lactate dehydrogenase is a stable cytosolic enzyme that is released upon cell lysis. SH-SY5Y cells were also subjected to caspase activity assays. These are based on cleavage of a synthetic caspase substrate DEVD (MP Biomedicals, 199423), a subtrate of active caspase 3/6/7. The assay was carried out according to manufacturer’s instructions.
# [3] = biological target: Abl kinase (h) (Homo sapiens, UniProt P00519); assay: CEREP Kinase Selectivity Panel; type: biochemical; settings: 10 μM lamellarin N
# [4] = test system: AMPKα; assay: CEREP Kinase Selectivity Panel; type: biochemical; settings: 10 μM lamellarin N
# [5] = biological target: BMX kinase (h) (Etk) (Homo sapiens, UniProt P51813); assay: CEREP Kinase Selectivity Panel; type: biochemical; settings: 10 μM lamellarin N
# [6] = biological target: Brk (h) (Homo sapiens, UniProt Q13882); assay: CEREP Kinase Selectivity Panel; type: biochemical; settings: 10 μM lamellarin N
# [7] = biological target: CaMK4 (h) (Homo sapiens, UniProt Q16566); assay: CEREP Kinase Selectivity Panel; type: biochemical; settings: 10 μM lamellarin N
# [8] = biological target: CHK1 (h) (Homo sapiens, UniProt O14757); assay: CEREP Kinase Selectivity Panel; type: biochemical; settings: 10 μM lamellarin N
# [9] = biological target: CHK2 (h) (Homo sapiens, UniProt O96017); assay: CEREP Kinase Selectivity Panel; type: biochemical; settings: 10 μM lamellarin N
# [10] = biological target: CSK (h) (Homo sapiens, UniProt P41240); assay: CEREP Kinase Selectivity Panel; type: biochemical; settings: 10 μM lamellarin N
# [11] = biological target: EphB4 kinase (h) (Homo sapiens, UniProt P54760); assay: CEREP Kinase Selectivity Panel; type: biochemical; settings: 10 μM lamellarin N
# [12] = biological target: ERK1 (h) (Homo sapiens, UniProt P27361); assay: CEREP Kinase Selectivity Panel; type: biochemical; settings: 10 μM lamellarin N
# [13] = biological target: ERK2 (h) (P42mapk) (Homo sapiens, UniProt P28482); assay: CEREP Kinase Selectivity Panel; type: biochemical; settings: 10 μM lamellarin N
# [14] = biological target: FGFR2 kinase (h) (Homo sapiens, UniProt P21802); assay: CEREP Kinase Selectivity Panel; type: biochemical; settings: 10 μM lamellarin N
# [15] = biological target: Fyn kinase (h) (Homo sapiens, UniProt P06241); assay: CEREP Kinase Selectivity Panel; type: biochemical; settings: 10 μM lamellarin N
# [16] = biological target: IGF1R kinase (h) (Homo sapiens, UniProt P08069); assay: CEREP Kinase Selectivity Panel; type: biochemical; settings: 10 μM lamellarin N
# [17] = biological target: JNK 2 (h) (Homo sapiens, UniProt P45984); assay: CEREP Kinase Selectivity Panel; type: biochemical; settings: 10 μM lamellarin N
# [18] = biological target: KDR kinase (h) (VEGFR2) (Homo sapiens, UniProt P35968); assay: CEREP Kinase Selectivity Panel; type: biochemical; settings: 10 μM lamellarin N
# [19] = biological target: Lyn kinase (h) (Homo sapiens, UniProt P07948); assay: CEREP Kinase Selectivity Panel; type: biochemical; settings: 10 μM lamellarin N
# [20] = biological target: MAPKAPK2 (h) (Homo sapiens, UniProt P49137); assay: CEREP Kinase Selectivity Panel; type: biochemical; settings: 10 μM lamellarin N
# [21] = biological target: MEK1/MAP2K1 (h) (Homo sapiens, UniProt Q02750); assay: CEREP Kinase Selectivity Panel; type: biochemical; settings: 10 μM lamellarin N
# [22] = biological target: p38α kinase (h) (Homo sapiens, UniProt Q16539); assay: CEREP Kinase Selectivity Panel; type: biochemical; settings: 10 μM lamellarin N
# [23] = biological target: PDGFRβ kinase (h) (Homo sapiens, UniProt P09619); assay: CEREP Kinase Selectivity Panel; type: biochemical; settings: 10 μM lamellarin N
# [24] = biological target: PDK1 (h) (Homo sapiens, UniProt O15530); assay: CEREP Kinase Selectivity Panel; type: biochemical; settings: 10 μM lamellarin N
# [25] = biological target: PKCβ 1 (h) (Homo sapiens, UniProt P05771); assay: CEREP Kinase Selectivity Panel; type: biochemical; settings: 10 μM lamellarin N
# [26] = biological target: PKCγ (h) (Homo sapiens, UniProt P05129); assay: CEREP Kinase Selectivity Panel; type: biochemical; settings: 10 μM lamellarin N
# [27] = biological target: ROCK2 (h) (Homo sapiens, UniProt O75116); assay: CEREP Kinase Selectivity Panel; type: biochemical; settings: 10 μM lamellarin N
# [28] = biological target: TRKA (h) (Homo sapiens, UniProt P04629); assay: CEREP Kinase Selectivity Panel; type: biochemical; settings: 10 μM lamellarin N
# [29] = test system: SH-SY5Y cells; assay: Kinetics and dose-response of cell death (MTS reduction, LDH release, DEVDase caspase activity); type: cell-based, human; settings: dose-response, doses as low as
# Procedure: SH-SY5Y cells were next incubated with a range of lamellarin N concentrations or at 1 μM over 48 hrs. Cell survival was monitored by the MTS reduction assay, cell death was assessed by the LDH release assay and caspase activation was measured using DEVD as a substrate (Figure 1).
# Figure 1. Dose- and time- dependent induction of cell death by lamellarin N. (A) Neuroblastoma SH-SY5Y cells were treated with lamellarin N at various concentrations. Cell death was measured by LDH release, cell survival was assessed by the MTS reduction assay, and caspase 3 activity was monitored as DEVDase activity. MTS and LDH assay were carried out 48 hours after treatment with lamellarin N. The caspase assay was carried out 24 hours after treatment. (B) Kinetics of cell survival, cell death and caspases activation following exposure of SH-SY5Y cells to 1 μM lamellarin N. Average of 3 independent experiments performed in triplicate. The standard deviation (±SD) is indicated by error bars.
# SH-SY5Y human neuroblastoma cells were grown in DMEM supplemented with 2mM L-glutamine (Invitrogen, Cergy Pontoise, France), plus antibiotics (penicillin-streptomycin) and a 10% volume of fetal calf serum (FCS) (Invitrogen). Cell viability was determined by means of the MTS (3- (4,5-dimethylthiazol-2-yl)-5- (3-carboxymethoxyphenyl)-2- (4-sulfophenyl)-2H -tetrazolium) reduction method as previously described. […]
# [30] = test system: CDK1/cyclin B, CDK5/p25, GSK-3α/ß, PIM-1, DYRK1A, CK1; assay: Kinase assay panel, structure/activity comparison; type: biochemical; settings: transposition of substitutions at R3 and R4 of lamellarin D
# Procedure: All compounds were run on our kinase assay panel comprising CDK1/cyclin B, CDK5/p25, GSK-3α/ß, PIM-1, DYRK1A, CK1.
# Kinase activities were assayed in buffer A (10 mM MgCl2, 1 mM EGTA, 1 mM DTT, 25 mM Tris-HCl pH 7.5, 50 μg heparin/ml) or C (60 mM β-glycerophosphate, 15 mM p-nitrophenyl phosphate, 25 mM MOPS (pH 7.2), 5 mM EGTA, 15 mM MgCl2, 1 mM dithiothreitol, 1 mM sodium vanadate, 1 mM phenylphosphate, 0.1 % Nonidet P-40), at 30°C, at a final ATP concentration of 15 μM. Blank values were subtracted and activities calculated as pmoles of phosphate incorporated during a 30 min. incubation. The activities were expressed in % of the maximal activity, i.e. in the absence of inhibitors. Controls were performed with appropriate dilutions of dimethylsulfoxide. Unless otherwise stated, the P81 phosphocellulose assay was used.
# [31] = biological target: DYRK1A (Rattus norvegicus, UniProt Q63470); assay: DYRK1A kinase assay (myelin basic protein)
# Procedure: Blank values were subtracted and activities calculated as pmoles of phosphate incorporated during a 30 min. incubation. The activities were expressed in % of the maximal activity, i.e. in the absence of inhibitors. Controls were performed with appropriate dilutions of dimethylsulfoxide. Unless otherwise stated, the P81 phosphocellulose assay was used.
# DYRK1A was expressed as a GST fusion protein in E. coli (vector kindly provided by Dr. W. Becker, Institute for Pharmacology and Toxicology, Aachen, Germany) and affinity purified on glutathione-agarose. […] ATP in a final volume of 30 μl. After 30 min incubation at 30°C, 25 μl aliquots of supernatant were treated as described above.
# CSK (h), sequence (P41240 whole entry): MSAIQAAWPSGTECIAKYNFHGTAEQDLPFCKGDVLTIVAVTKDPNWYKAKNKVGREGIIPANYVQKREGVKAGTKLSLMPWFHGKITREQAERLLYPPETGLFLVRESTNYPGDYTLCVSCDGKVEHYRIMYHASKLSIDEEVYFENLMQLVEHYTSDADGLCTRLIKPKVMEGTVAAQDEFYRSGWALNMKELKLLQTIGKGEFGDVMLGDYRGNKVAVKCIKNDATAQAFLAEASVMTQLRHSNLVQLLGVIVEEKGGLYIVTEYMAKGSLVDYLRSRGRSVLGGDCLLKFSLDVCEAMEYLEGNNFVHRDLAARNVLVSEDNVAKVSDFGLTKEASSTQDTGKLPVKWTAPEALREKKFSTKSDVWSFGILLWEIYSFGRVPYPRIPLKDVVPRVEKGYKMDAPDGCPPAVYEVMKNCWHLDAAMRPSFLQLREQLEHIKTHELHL
# CaMK4 (h), sequence (Q16566 whole entry): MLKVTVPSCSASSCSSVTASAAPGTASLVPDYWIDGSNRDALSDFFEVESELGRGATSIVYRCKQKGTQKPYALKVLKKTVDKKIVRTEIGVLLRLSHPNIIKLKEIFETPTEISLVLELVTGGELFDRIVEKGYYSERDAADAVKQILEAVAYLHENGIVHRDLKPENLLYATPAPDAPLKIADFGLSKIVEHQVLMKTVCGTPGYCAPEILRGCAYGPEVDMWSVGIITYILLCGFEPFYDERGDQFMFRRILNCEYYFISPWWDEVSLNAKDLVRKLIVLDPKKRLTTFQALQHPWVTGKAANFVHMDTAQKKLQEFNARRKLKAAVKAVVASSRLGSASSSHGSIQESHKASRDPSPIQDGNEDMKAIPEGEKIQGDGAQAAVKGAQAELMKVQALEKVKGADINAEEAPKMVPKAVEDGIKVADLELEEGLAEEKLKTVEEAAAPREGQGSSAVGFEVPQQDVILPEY
# PDGFRβ kinase (h), sequence (P09619 33-1106): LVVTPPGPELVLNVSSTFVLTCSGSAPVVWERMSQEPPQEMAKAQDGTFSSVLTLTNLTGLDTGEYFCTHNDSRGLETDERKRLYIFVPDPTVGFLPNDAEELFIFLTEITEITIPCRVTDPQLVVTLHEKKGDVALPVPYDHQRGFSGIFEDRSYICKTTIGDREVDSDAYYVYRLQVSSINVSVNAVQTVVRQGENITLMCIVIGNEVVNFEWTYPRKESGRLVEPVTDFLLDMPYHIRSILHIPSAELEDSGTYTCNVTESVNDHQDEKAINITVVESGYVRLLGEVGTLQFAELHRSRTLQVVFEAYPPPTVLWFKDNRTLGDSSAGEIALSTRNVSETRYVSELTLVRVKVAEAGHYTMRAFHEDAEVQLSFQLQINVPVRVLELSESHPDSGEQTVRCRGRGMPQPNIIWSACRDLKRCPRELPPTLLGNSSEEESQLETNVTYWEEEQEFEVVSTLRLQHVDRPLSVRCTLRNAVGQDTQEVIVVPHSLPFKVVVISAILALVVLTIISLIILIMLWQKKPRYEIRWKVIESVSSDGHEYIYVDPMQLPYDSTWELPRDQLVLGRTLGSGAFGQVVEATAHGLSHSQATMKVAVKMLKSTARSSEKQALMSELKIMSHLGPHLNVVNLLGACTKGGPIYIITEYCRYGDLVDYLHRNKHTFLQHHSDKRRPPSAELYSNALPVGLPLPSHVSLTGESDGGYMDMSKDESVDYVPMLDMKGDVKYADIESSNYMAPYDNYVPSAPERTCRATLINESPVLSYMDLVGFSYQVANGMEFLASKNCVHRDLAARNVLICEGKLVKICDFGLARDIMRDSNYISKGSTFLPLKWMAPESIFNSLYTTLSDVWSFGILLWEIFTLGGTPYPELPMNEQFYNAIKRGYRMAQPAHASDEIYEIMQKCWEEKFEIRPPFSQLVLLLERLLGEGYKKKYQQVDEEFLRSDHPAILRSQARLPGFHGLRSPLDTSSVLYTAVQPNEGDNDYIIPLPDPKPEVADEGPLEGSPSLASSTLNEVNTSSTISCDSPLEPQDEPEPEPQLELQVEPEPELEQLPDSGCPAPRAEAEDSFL
# MAPKAPK2 (h), sequence (P49137 whole entry): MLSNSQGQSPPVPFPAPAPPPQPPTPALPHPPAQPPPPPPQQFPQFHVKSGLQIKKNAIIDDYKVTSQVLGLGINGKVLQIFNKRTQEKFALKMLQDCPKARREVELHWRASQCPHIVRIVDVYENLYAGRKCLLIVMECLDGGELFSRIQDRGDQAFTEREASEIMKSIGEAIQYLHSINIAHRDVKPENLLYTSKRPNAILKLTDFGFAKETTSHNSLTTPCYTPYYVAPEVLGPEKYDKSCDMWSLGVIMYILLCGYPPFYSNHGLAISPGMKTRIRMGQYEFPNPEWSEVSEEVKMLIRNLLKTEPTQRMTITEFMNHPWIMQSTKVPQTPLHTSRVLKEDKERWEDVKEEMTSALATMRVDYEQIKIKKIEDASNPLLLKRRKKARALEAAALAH
# TRKA (h), sequence (P04629 33-796): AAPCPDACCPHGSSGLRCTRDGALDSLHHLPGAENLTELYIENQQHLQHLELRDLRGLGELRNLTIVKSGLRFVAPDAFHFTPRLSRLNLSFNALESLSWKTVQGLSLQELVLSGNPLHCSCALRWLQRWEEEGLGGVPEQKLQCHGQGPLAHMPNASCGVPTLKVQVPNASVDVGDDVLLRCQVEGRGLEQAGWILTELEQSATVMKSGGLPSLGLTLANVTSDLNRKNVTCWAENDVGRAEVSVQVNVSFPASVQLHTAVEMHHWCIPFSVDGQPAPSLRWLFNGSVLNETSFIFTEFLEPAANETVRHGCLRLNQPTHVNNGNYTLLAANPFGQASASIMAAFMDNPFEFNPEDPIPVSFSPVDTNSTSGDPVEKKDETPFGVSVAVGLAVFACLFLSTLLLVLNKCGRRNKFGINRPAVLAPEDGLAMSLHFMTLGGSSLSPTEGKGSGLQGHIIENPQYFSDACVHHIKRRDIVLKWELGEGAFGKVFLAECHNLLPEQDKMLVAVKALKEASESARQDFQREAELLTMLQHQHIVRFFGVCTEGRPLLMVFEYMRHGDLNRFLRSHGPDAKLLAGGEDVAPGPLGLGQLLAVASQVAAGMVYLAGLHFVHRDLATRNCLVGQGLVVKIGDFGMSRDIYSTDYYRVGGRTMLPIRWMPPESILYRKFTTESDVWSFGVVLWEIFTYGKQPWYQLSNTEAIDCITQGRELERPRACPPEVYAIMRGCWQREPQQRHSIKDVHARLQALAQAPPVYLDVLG
# Abl kinase (h), sequence (P00519 whole entry): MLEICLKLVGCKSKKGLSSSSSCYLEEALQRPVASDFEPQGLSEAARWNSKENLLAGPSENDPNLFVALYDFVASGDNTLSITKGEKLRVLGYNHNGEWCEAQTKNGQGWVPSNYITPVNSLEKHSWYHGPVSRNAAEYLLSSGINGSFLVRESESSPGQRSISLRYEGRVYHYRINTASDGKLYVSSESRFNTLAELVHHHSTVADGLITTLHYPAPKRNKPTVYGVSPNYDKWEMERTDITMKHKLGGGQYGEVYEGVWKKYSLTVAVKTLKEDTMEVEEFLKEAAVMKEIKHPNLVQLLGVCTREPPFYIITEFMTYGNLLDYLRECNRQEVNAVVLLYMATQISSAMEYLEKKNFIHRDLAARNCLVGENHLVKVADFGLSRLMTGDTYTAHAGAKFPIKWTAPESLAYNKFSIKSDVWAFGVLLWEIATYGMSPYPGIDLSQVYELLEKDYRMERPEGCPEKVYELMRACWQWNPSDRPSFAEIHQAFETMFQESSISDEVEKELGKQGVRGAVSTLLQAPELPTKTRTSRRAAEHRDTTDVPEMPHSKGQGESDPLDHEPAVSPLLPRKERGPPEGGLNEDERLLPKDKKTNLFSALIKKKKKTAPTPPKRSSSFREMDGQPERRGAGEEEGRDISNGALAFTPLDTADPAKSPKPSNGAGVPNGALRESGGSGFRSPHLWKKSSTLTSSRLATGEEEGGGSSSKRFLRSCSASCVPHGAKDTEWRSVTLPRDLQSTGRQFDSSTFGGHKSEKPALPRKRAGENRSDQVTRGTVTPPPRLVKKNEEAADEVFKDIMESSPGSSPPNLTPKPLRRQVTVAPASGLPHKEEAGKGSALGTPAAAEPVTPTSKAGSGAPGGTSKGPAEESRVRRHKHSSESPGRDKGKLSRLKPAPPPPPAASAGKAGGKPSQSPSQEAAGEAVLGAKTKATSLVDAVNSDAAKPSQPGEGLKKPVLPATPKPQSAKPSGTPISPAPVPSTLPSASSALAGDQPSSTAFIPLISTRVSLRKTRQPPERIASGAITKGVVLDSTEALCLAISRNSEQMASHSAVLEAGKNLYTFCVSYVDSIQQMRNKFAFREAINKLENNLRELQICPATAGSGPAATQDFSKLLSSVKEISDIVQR
# p38α kinase (h), sequence (Q16539 whole entry): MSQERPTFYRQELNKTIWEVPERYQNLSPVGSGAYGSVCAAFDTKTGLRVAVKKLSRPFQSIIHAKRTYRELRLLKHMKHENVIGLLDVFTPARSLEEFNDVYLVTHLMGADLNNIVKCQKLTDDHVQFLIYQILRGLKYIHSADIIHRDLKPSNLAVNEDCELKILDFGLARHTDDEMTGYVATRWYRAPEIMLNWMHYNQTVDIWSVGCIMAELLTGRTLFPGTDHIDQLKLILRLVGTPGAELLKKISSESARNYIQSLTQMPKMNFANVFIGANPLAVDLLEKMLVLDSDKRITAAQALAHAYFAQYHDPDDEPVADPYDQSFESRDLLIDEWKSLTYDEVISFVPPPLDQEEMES
# MEK1/MAP2K1 (h), sequence (Q02750 whole entry): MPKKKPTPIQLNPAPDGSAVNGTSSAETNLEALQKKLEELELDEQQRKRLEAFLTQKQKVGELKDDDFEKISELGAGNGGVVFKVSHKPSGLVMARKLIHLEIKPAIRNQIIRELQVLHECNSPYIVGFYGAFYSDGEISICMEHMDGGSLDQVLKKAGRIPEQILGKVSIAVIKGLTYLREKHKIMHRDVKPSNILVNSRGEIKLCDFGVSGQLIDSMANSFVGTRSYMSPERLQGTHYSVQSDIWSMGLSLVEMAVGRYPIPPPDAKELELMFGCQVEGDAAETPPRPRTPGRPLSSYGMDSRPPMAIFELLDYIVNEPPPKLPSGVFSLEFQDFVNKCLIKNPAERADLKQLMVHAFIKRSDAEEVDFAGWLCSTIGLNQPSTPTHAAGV
structure (smiles),measurement,setting,value
"COc1ccc(-c2c3c4cc(OC)c(O)cc4oc(=O)c3n3ccc4cc(O)c(OC)cc4c23)cc1O [Compound 6, lamellarin N]",IC50,[1],55 nM
same,IC50,[2],25 nM
same,Activity (% of control),[3],61.4 % of control
same,Activity (% of control),[4],42.4 % of control
same,Activity (% of control),[5],60.8 % of control
same,Activity (% of control),[6],72.8 % of control
same,Activity (% of control),[7],89.9 % of control
same,Activity (% of control),[8],93.3 % of control
same,Activity (% of control),[9],47.6 % of control
same,Activity (% of control),[10],47.4 % of control
same,Activity (% of control),[11],89.7 % of control
same,Activity (% of control),[12],94.1 % of control
same,Activity (% of control),[13],79.9 % of control
same,Activity (% of control),[14],19.8 % of control
same,Activity (% of control),[15],20.1 % of control
same,Activity (% of control),[16],87.2 % of control
same,Activity (% of control),[17],15.7 % of control
same,Activity (% of control),[18],7.4 % of control
same,Activity (% of control),[19],7.2 % of control
same,Activity (% of control),[20],96.6 % of control
same,Activity (% of control),[21],81.5 % of control
same,Activity (% of control),[22],97.4 % of control
same,Activity (% of control),[23],1.8 % of control
same,Activity (% of control),[24],89.8 % of control
same,Activity (% of control),[25],102.0 % of control
same,Activity (% of control),[26],94.1 % of control
same,Activity (% of control),[27],103.3 % of control
same,Activity (% of control),[28],0.8 % of control
same,lowest dose at which cells start dying,[29],0.05 µM
same,enhancement of kinase inhibitory activity relative to lamellarin D,[30],10 fold
same,IC50,[31],35 nM
